Series [1] addresses T1, human GlyT1c transporter (Homo sapiens, UniProt P48067).
T1 construct: expressed in transfected cells; host or cells: CHO cells (recombinant; membranes)
T1 sequence (P48067 1-706): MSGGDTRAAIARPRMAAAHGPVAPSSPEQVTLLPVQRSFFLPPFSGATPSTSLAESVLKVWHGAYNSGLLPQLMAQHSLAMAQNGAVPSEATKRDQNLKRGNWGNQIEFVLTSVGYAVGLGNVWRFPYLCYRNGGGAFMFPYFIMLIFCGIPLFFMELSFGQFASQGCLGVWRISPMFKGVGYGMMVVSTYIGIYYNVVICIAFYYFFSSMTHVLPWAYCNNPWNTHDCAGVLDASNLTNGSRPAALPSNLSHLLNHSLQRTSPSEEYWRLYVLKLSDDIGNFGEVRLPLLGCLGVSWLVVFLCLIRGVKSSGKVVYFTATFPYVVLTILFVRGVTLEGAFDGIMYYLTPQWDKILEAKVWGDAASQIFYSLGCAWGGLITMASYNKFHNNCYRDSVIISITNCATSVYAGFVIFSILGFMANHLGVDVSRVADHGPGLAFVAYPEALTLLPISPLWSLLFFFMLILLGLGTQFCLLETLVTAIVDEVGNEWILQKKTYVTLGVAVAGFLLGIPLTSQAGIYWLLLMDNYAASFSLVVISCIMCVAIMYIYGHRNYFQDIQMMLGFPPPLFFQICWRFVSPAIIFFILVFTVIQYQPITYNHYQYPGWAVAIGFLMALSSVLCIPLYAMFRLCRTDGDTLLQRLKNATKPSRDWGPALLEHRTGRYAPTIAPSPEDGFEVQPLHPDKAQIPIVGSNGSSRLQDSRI
Description: Radioligand binding assay using recombinant CHO cell membranes expressing human GlyT1. The conditions noted are these: values given as upper bounds, read-out: radioligand binding Kiapp. The protocol: 2. Radioligand Binding Assays Using Recombinant CHO Cell Membranes Expressing Human GlyT1:
Radioligand binding to human GlyT1c transporter-expressing membranes was determined as described in Mezler et al., Molecular Pharmacology 74:1705-1715, 2008.

Series [2] concerns the target T2, MDR1 (P-gp) (Homo sapiens, UniProt P08183).
T2 construct: expressed in transfected cells; host or cells: Madin-Darby Canine Kidney Type II cells (MDR1-MDCK)
Briefly: Efflux ratio by bidirectional transport in MDR1-MDCK cells. It counts as in vitro ADME. The conditions noted are these: dog; MDR1-MDCK monolayers, 1 μM compound, HBSS pH 7.4, 1 h at 37 C; calculated from permeability coefficients. The protocol:
3. Determination of Efflux Ratio Using Madin-Darby Canine Kidney Type II Cells
Bidirectional transport experiments were performed on Madin-Darby Canine Kidney Type II cells over-expressing multidrug resistance protein 1 (MDR1-MDCK) to evaluate the compounds as potential P-gp substrates.
Compounds were added at 1 μM in HBSS-pH 7.4 (hanks balanced salt solution) to either the apical or basolateral side of MDR1-MDCK cell monolayers grown on Millicell 96-Cell polycarbonate filters. Samples were collected from both apical and basolateral sides at time 0 and after 1 h incubation at 37 C, compounds concentrations were measured by HPLC/MS/MS and permeability coefficients were then determined in both transport directions. The efflux ratio was subsequently calculated from the permeability coefficient.

SMILES strings stand for the structures.

T2 sequence (P08183 whole entry, species assumed): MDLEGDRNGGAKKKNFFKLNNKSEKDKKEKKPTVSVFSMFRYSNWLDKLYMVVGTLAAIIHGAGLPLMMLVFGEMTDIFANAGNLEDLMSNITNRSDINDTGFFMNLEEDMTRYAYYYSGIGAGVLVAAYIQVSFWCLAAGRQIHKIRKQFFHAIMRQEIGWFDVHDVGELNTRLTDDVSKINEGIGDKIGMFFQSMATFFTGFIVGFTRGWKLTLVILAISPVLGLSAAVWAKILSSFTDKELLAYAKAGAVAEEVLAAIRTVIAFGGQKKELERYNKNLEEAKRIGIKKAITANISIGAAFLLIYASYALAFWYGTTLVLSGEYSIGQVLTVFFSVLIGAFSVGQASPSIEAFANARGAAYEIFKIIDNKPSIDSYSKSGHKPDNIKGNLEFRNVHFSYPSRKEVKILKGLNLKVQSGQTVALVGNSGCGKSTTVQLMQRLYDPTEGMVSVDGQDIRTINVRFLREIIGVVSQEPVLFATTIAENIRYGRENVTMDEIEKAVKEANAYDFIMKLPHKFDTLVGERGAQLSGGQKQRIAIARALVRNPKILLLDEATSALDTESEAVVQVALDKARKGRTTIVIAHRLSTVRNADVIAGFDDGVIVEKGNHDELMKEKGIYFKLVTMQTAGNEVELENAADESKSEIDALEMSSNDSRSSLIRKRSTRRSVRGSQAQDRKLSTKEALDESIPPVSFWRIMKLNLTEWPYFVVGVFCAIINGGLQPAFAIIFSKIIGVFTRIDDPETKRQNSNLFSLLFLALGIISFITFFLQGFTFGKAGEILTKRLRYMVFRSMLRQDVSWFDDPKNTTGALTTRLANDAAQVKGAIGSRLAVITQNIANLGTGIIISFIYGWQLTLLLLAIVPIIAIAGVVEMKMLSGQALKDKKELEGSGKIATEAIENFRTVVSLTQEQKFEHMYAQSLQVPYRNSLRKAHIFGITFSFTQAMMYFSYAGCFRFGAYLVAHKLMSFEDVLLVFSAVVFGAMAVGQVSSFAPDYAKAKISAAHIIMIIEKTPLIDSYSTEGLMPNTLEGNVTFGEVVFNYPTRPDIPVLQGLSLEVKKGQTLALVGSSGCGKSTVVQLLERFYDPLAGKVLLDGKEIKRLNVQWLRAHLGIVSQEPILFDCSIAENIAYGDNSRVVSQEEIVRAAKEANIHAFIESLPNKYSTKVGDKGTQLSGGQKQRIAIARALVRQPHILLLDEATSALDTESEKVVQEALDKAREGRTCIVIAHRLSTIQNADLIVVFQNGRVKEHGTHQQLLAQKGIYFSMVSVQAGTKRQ

On to `CN[C@@H]1COc2ccc(CNS(=O)(=O)C3CCC3)cc2[C@@H]1Cc1ccccc1` (relative stereo) [Example 25, cis-Cyclobutanesulfonic acid (4-benzyl-3-methylamino-chroman-6-ylmethyl)-amide], for which the Ki in series [1] was at most 100 nM. For the same compound, the efflux ratio at 1 h, 1 μM in series [2] is 1.4.
For `Cc1cc(S(=O)(=O)NCc2ccc3c(c2)C(Cc2ccccc2)C(N)CO3)c(C)o1` (stereo not shown) [Example 50, 2,5-Dimethyl-furan-3-sulfonic acid (3-amino-4-benzyl-chroman-6-ylmethyl)-amide 2,2,2-trifluoroacetate], in series [1], the Ki is at most 100 nM.
Same read-out and setting: next, `CC(C)CCN[C@@H]1COc2ccc(CNS(=O)(=O)c3cn(C)cn3)cc2[C@@H]1Cc1ccccc1` (relative stereo) [Example 39, cis-N-((-4-benzyl-3-(isopentylamino)chroman-6-yl)methyl)-1-methyl-1H-imidazole-4-sulfonamide 2,2,2-trifluoroacetate]: at most 10 nM.

The values are drawn from US8853196B2, “Aminochromane, aminothiochromane and amino-1,2,3,4-tetrahydroquinoline derivatives, pharmaceutical compositions containing them, and their use in therapy” (AbbVie Deutschland GmbH & Co. KG, priority 2011, dated 2014).
